# Test results published in US20260365670A1, “EGFR INHIBITORS AND USES THEREOF” (DIZAL (JIANGSU) PHARMACEUTICAL CO., LTD., priority 2022, published 2026).
# pIC50: −log10 of the molar value. Like-named read-outs stand apart in the source and are kept apart here.
# Assays:
# EGFR wild type = target: T1, EGFR wild type (Homo sapiens, UniProt P00533); experiment: Inhibition of EGFR wild type biochemical enzymatic activity (HTRF); conditions: 1 mM ATP; for pIC50: EGFR wild type, 1 h at room temperature, read-out: IC50 @WT
# T1 construct: purchased Carna Bio
# Method in brief: (§1)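 Following 1 h at room temperature with titrated compound, 1 mM ATP and 1 μM biotin-TK peptide (Mg2+/Mn2+, CHAPS, DTT, 0.5% DMSO buffer), EDTA-containing detection reagent terminated each enzyme reaction. Time-resolved fluorescence (ex 320, em 665/615 nm) ratio tracked activity. IC50 values came from four-parameter fits.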
# EGFR L858R/T790M = target: T2, EGFR L858R/T790M (Homo sapiens, UniProt P00533, L858R/T790M); experiment: Inhibition of EGFR L858R/T790M biochemical enzymatic activity (HTRF); conditions: 1 mM ATP; for pIC50: EGFR L858R/T790M, 1 h at room temperature, read-out: IC50 @L858R-T790M
# T2 construct: purchased Carna Bio
# Method in brief: as §1
# EGFR (C797S L858R) = target: T3, EGFR (C797S L858R) (Homo sapiens, UniProt P00533, C797S/L858R); experiment: Inhibition of EGFR (C797S L858R) biochemical enzymatic activity (HTRF); conditions: 1 mM ATP; for pIC50: EGFR (C797S L858R), 1 h at room temperature, read-out: IC50 @L858-C797S
# T3 construct: purchased signalchem
# Method in brief: as §1
# A-431 = experiment: Cell proliferation assay, A-431 cells (GI50, Table 6); type: cell-based
# EGFR (d746-750 C797S) = target: T4, EGFR (d746-750 C797S) (Homo sapiens, UniProt P00533, C797S/DEL746-750); experiment: Inhibition of EGFR (d746-750 C797S) biochemical enzymatic activity (HTRF); conditions: 1 mM ATP; for pIC50: EGFR (d746-750 C797S), 1 h at room temperature, read-out: IC50 @Del19-C797S
# T4 construct: purchased signalchem
# Method in brief: as §1
# EGFR Exon19Del/T790M = target: T5, EGFR Exon19Del/T790M (Homo sapiens, UniProt P00533, DEL746-750/T790M); experiment: Inhibition of EGFR Exon19Del/T790M biochemical enzymatic activity (HTRF); conditions: 1 mM ATP; for pIC50: EGFR Exon19Del/T790M, 1 h at room temperature, read-out: IC50 @Del19-T790M
# T5 construct: purchased Carna Bio
# Method in brief: as §1
# PC-9 = experiment: Cell proliferation assay, PC-9 cells (CellTiter-Glo, 72 hours); type: cell-based; conditions: PC9 cells, read-out: GI50 PC9
# Method in brief: (§2)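 GI50 is the concentration giving 50% proliferation inhibition. Growth for this was normalised to a baseline viability reading taken when compound was added, and to DMSO wells. PC-9 (500 cells/well) and mutant-EGFR Ba/F3 (5000 cells/well) are treated after overnight seeding in RPMI1640-based medium.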
# EGFR Exon19Del = target: T6, EGFR Exon19Del (Homo sapiens, UniProt P00533, DEL746-750); experiment: Inhibition of EGFR Exon19Del biochemical enzymatic activity (HTRF); conditions: read-out: IC50 @Del19
# T6 construct: purchased Carna Bio
# Method in brief: as §1
# [1] = target: T7, EGFR[T790M/C797S/d746-750] (Homo sapiens, UniProt P00533, C797S/DEL746-750/T790M); experiment: Inhibition of EGFR[T790M/C797S/d746-750] biochemical enzymatic activity (HTRF); conditions: for pIC50: EGFR[T790M/C797S/d746-750], 1 mM ATP, 1 h at room temperature, read-out: IC50 @T790M - C797S - Del19
# T7 construct: purchased Carna Bio
# Method in brief: as §1
# [2] = system: Ba/F3 cells expressing EGFR mutations; experiment: Cell proliferation assay, Ba/F3 cells expressing EGFR mutations (CellTiter-Glo, 72 hours); type: cell-based
# Method in brief: as §2
# EGFR[T790M/C797S/L858R] = target: T8, EGFR[T790M/C797S/L858R] (Homo sapiens, UniProt P00533, C797S/L858R/T790M); experiment: Inhibition of EGFR[T790M/C797S/L858R] biochemical enzymatic activity (HTRF); conditions: 1 mM ATP; for pIC50: EGFR[T790M/C797S/L858R], 1 h at room temperature, read-out: IC50 @T790M- C797S - L858R
# T8 construct: purchased Carna Bio
# Method in brief: as §1
# EGFR L858R = target: T9, EGFR L858R (Homo sapiens, UniProt P00533, L858R); experiment: Inhibition of EGFR L858R biochemical enzymatic activity (HTRF); conditions: 1 mM ATP; for pIC50: 1 h at room temperature, read-out: IC50 @L858R
# T9 construct: purchased Carna Bio
# Method in brief: as §1
# [3] = Homo sapiens, A-431, A-431 cells
# [4] = EGFR Exon19Del, 1 mM ATP, 1 h at room temperature
# [5] = Mus musculus, BaF3, 72 h, BaF3 cells, EGFR DEL19 - C797S, read-out: GI50 DEL19 - C797S/BaF3
# [6] = Mus musculus, BaF3, 72 h, BaF3 cells, EGFR DEL19 - T790-C797S, read-out: GI50 DEL19 - T790-C797S/BaF3
# [7] = Mus musculus, BaF3, 72 h, BaF3 cells, EGFR L858R - C797S, read-out: GI50 L858R - C797S/BaF3
# [8] = Mus musculus, BaF3, 72 h, BaF3 cells, EGFR L858R - T790-C797S, read-out: GI50 L858R - T790-C797S/BaF3
# [9] = Mus musculus, BaF3, 72 h, BaF3 cells, EGFR L858R - T790M, read-out: GI50 L858R - T790M/BaF3
# [10] = Mus musculus, BaF3, 72 h, BaF3 cells, EGFR L858R, read-out: GI50 L858R/BaF3
# [11] = BaF3 cells, EGFR DEL19 - C797S, read-out: GI50 DEL19 - C797S/BaF3
# [12] = BaF3 cells, EGFR DEL19 - T790-C797S, read-out: GI50 DEL19 - T790-C797S/BaF3
# [13] = BaF3 cells, EGFR L858R - C797S, read-out: GI50 L858R - C797S/BaF3
# [14] = BaF3 cells, EGFR L858R - T790-C797S, read-out: GI50 L858R - T790-C797S/BaF3
# [15] = BaF3 cells, EGFR L858R - T790M, read-out: GI50 L858R - T790M/BaF3
# [16] = BaF3 cells, EGFR L858R, read-out: GI50 L858R/BaF3
# [17] = EGFR DEL19 - T790M, read-out: GI50 DEL19 - T790M
# T8 sequence (P00533 25-1210 T790M/C797S/L858R): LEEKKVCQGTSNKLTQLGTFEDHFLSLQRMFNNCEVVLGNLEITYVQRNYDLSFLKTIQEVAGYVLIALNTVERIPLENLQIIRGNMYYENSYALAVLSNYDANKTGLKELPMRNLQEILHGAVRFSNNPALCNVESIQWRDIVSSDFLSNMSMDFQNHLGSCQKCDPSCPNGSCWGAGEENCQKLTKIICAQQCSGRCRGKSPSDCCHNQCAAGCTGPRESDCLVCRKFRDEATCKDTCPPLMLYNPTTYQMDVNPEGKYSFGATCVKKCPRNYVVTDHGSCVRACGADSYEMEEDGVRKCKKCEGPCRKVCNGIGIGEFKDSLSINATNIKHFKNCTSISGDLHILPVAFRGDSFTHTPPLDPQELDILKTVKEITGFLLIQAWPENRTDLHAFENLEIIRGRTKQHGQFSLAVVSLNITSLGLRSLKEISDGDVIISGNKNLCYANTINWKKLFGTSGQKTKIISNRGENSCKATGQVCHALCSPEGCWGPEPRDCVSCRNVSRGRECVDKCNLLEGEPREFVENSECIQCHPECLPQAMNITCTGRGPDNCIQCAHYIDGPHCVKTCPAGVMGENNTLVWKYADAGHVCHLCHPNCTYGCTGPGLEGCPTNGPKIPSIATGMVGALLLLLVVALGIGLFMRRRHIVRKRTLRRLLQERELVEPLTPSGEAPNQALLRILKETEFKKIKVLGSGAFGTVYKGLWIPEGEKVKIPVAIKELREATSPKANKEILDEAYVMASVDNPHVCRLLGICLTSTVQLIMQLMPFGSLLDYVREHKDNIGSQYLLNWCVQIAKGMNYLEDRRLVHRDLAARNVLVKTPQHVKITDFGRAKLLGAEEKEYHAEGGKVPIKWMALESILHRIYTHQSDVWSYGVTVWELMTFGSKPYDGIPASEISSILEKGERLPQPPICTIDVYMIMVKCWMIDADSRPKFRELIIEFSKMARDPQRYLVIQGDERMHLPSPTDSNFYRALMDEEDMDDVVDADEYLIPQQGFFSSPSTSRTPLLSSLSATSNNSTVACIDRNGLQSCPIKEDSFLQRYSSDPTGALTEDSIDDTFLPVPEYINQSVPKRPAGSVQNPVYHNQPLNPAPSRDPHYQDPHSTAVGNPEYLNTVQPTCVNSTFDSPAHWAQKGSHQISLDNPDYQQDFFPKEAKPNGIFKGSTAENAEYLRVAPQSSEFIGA
# T6 sequence (P00533 with tags, fused parts or gaps DEL746-750 limits assumed): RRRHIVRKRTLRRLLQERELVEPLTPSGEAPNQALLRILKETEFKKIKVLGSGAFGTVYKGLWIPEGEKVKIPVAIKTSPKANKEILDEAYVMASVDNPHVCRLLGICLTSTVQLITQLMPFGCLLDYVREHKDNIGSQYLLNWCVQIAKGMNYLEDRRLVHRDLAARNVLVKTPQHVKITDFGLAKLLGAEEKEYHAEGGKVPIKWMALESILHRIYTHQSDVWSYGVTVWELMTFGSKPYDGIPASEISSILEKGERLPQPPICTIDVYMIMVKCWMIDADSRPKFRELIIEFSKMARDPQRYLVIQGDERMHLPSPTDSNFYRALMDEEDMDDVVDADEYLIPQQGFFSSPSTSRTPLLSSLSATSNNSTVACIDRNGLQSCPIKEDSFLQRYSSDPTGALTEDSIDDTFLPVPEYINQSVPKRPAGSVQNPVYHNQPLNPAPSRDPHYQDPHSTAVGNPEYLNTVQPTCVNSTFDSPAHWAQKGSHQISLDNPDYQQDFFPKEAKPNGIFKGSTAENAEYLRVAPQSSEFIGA
# T7 sequence (P00533 with tags, fused parts or gaps DEL746-750/T790M/C797S limits assumed): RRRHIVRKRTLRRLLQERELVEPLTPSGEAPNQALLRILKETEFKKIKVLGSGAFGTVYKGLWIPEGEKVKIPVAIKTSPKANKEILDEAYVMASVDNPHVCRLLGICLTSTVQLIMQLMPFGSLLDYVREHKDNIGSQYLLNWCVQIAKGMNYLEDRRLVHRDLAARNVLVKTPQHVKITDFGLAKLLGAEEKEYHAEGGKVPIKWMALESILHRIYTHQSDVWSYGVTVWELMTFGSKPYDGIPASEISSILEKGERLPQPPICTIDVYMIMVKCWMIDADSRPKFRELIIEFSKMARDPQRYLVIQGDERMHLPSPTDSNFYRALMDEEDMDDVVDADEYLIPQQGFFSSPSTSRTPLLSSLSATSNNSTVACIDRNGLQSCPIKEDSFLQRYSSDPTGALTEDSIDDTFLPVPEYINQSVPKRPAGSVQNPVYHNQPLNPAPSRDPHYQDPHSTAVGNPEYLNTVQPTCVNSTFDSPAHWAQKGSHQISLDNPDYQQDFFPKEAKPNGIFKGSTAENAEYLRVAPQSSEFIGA
# T2 sequence (P00533 25-1210 T790M/L858R): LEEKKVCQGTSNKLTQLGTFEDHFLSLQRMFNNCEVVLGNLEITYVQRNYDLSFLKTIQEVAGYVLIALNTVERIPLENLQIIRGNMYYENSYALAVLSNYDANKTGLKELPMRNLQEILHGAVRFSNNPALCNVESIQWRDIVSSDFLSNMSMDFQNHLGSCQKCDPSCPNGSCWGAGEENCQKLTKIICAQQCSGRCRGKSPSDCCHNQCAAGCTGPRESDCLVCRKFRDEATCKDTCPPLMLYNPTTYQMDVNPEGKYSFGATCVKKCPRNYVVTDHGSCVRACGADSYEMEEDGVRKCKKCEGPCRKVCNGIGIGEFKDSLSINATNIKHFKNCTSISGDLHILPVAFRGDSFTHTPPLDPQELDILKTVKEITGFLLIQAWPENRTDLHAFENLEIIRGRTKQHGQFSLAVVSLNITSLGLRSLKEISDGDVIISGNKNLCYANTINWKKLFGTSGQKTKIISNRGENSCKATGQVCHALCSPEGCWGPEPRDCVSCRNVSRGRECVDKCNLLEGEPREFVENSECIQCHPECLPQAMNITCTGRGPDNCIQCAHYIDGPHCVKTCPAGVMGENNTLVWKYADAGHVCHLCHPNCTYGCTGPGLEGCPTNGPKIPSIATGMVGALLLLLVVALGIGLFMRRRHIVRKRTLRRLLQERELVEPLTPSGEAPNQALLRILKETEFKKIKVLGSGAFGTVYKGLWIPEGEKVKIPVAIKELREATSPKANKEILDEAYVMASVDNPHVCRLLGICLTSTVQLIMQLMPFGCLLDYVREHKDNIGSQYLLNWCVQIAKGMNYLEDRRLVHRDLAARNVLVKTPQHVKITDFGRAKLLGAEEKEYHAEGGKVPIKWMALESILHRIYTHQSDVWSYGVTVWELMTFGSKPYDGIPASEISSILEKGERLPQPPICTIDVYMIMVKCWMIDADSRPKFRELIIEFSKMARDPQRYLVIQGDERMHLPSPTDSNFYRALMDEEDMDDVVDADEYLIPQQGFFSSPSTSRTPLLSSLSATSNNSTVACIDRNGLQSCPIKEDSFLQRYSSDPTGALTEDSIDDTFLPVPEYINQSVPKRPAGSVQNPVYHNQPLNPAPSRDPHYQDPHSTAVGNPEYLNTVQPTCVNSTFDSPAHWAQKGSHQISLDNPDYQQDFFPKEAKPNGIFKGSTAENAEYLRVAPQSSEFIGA
# T9 sequence (P00533 25-1210 L858R): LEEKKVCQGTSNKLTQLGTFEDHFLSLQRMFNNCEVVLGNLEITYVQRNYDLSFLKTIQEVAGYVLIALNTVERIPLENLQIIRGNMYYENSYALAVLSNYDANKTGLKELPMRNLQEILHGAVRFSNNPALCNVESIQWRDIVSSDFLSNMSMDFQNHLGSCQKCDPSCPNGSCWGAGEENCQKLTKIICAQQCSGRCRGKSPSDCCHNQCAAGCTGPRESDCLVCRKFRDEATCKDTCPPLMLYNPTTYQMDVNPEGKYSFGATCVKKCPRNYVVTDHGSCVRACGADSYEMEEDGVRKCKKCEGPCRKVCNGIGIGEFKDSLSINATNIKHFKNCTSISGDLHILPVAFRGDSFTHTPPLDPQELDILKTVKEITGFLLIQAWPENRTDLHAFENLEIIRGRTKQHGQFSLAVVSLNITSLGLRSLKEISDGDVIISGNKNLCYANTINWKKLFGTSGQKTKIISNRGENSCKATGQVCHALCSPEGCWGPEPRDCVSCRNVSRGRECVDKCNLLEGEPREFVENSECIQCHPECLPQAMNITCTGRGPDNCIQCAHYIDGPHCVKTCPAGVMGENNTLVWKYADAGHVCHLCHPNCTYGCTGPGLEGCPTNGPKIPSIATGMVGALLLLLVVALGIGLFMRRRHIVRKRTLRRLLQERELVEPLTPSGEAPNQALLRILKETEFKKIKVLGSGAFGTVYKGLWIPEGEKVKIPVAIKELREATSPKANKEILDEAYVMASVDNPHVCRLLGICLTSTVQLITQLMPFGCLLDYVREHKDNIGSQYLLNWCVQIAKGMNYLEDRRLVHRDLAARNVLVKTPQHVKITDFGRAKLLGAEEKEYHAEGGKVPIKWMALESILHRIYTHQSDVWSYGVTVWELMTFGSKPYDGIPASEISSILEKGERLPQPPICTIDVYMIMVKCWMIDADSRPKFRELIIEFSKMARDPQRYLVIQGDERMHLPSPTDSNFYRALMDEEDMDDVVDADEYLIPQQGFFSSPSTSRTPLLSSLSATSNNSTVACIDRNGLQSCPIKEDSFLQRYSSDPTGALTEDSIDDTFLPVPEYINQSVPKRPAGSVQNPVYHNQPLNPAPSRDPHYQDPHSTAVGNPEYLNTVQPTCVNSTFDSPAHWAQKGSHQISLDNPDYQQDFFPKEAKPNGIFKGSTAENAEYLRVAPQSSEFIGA
SMILES,pIC50 (EGFR wild type),pIC50 (EGFR L858R/T790M),pIC50 (EGFR (C797S L858R)),GI50 (A-431; [3]) [nM],pIC50 (EGFR (d746-750 C797S)),pIC50 (EGFR Exon19Del/T790M),"GI50 (PC-9; Homo sapiens, PC-9, 72 h) [nM]",pIC50 (EGFR Exon19Del; [4]),pIC50 [1],"GI50 [2, 5] [nM]","GI50 [2, 6] [nM]","GI50 [2, 7] [nM]","GI50 [2, 8] [nM]","GI50 [2, 9] [nM]","GI50 [2, 10] [nM]",pIC50 (EGFR[T790M/C797S/L858R]),pIC50 (EGFR L858R),GI50 (PC-9) [nM],"GI50 [2, 11] [nM]","GI50 [2, 12] [nM]",other results
Cc1cc2cc(n1)-c1cnn(C)c1OCCN1CC3CCC(CC3)(C1)n1c(nc3ccc(N(C)CCN(C)C)cc31)NC2=O [Example B32],< 5.30,7.96,6.93,7410,7.89,8.18,81,7.77,8.64,11,3,78,7,20,64,8.41,6.71,,,,"GI50 ([2]; Mus musculus, BaF3, 72 h, EGFR DEL19 - T790M, read-out: GI50 DEL19 - T790M): 4 nM"
"Cc1cc2cc(n1)-c1cnn(C)c1OCCN1CC3CCC(C3)(C1)n1c(nc3ccc(N4CC5CN(C)CC5C4)cc31)NC2=O (single isomer, unassigned) [Example B43B]",6.31,8.32,8.05,437,8.52,8.28,,8.18,8.52,,,,,,,8.64,7.44,7,2,2,"GI50 [2, 13]: 7 nM; GI50 [2, 14]: 2 nM; GI50 [2, 15]: 2 nM; GI50 [2, 16]: 12 nM; GI50 [2, 17]: 2 nM"
"Cc1cc2cc(n1)-c1cnn(C)c1OCCN1CC3CCC(C3)(C1)n1c(nc3ccc(N4CCN(C5COC5)CC4)cc31)NC2=O (single isomer, unassigned) [Example B58A]",< 5.30,< 5.30,< 5.30,,5.41,< 5.30,,< 5.30,< 5.30,,,,,,,< 5.30,< 5.30,737,163,229,"GI50 (A-431; A-431 cells): 8610 nM; GI50 [2, 13]: 828 nM; GI50 [2, 14]: 90 nM; GI50 [2, 15]: 307 nM; GI50 [2, 16]: 1560 nM; GI50 [2, 17]: 378 nM"
CN1CCC12CCN(c1ccc3nc4n(c3c1)C13CCC(CC1)CN(CCOc1c(cnn1C)-c1cc(cn(C)c1=O)C(=O)N4)C3)CC2 [Example A122],,,,2100,,,22,,,3.2,22,19,13,82,4.1,,,,,,"IC50 (EGFR wild type; EGFR WT, 1 h, room temperature, read-out: IC50 (nM) @WT): 1420 nM; IC50 (EGFR L858R/T790M; EGFR L858R-T790M, 1 h, room temperature, read-out: IC50 (nM) @L858R-T790M): 39 nM; IC50 (EGFR (C797S L858R); EGFR L858-C797S, 1 h, room temperature, read-out: IC50 (nM) @L858-C797S): 25 nM; IC50 (EGFR (d746-750 C797S); EGFR Del19-C797S, 1 h, room temperature, read-out: IC50 (nM) @Del19-C797S): 3.5 nM; IC50 (EGFR Exon19Del/T790M; EGFR Del19-T790M, 1 h, room temperature, read-out: IC50 (nM) @Del19-T790M): 7.6 nM; pIC50 (EGFR Exon19Del; EGFR Del19, 1 mM ATP, 1 h, room temperature): 8.17; IC50 ([1]; EGFR T790M-C797S-Del19, 1 mM ATP, 1 h, room temperature, read-out: IC50 (nM) @T790M - C797S - Del19): 5.2 nM; IC50 (EGFR[T790M/C797S/L858R]; EGFR T790M-C797S-L858R, 1 h, room temperature, read-out: IC50 (nM) @T790M- C797S - L858R): 8.1 nM; IC50 (EGFR L858R; 1 h, room temperature, read-out: IC50 (nM) @L858R): 48 nM"
